Reference: patent US9890156B2, “Bicyclic heterocycles as FGFR4 inhibitors” (Incyte Corporation, priority 2015, dated 2018)
Like-named read-outs stand apart in the source and are kept apart here.

Experiments:
[1] = target: FGFR1 (Homo sapiens (Human), UniProt P11362); assay: FGFR Enzymatic Assay (FRET, peptide phosphorylation), FGFR1; settings: read-out: FGFR1 IC50; pre-incubated for 4 hours; ATP 210 uM
[2] = target: FGFR4 (Homo sapiens (Human), UniProt P22455); assay: FGFR Enzymatic Assay (FRET, peptide phosphorylation), FGFR4
Chain of FGFR4 (P22455 22-802): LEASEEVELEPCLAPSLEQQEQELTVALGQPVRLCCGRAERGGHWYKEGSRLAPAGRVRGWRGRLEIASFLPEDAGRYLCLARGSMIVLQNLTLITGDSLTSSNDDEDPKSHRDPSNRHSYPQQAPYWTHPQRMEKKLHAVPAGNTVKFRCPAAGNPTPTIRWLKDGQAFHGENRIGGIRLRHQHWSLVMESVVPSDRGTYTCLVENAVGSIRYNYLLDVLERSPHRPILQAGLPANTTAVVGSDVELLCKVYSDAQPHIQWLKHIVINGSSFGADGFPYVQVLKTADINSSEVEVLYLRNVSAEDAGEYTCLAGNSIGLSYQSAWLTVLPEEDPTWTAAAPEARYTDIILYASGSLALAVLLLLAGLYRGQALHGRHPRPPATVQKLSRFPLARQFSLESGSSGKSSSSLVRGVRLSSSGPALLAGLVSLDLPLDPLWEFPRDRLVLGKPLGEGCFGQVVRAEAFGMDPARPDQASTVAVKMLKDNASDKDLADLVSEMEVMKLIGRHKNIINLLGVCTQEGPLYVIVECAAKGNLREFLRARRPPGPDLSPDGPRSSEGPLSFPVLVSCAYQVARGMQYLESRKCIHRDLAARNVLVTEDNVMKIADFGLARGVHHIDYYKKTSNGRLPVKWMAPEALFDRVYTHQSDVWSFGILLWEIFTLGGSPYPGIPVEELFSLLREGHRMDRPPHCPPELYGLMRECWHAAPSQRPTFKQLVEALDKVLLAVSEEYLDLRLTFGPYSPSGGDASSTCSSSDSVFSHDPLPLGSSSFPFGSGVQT

[3] = target: FGFR2 (Homo sapiens (Human), UniProt P21802); assay: FGFR Enzymatic Assay (FRET, peptide phosphorylation), FGFR2; settings: read-out: FGFR2 IC50; pre-incubated for 4 hours; ATP 100 uM
Chain of FGFR2 (P21802 22-821): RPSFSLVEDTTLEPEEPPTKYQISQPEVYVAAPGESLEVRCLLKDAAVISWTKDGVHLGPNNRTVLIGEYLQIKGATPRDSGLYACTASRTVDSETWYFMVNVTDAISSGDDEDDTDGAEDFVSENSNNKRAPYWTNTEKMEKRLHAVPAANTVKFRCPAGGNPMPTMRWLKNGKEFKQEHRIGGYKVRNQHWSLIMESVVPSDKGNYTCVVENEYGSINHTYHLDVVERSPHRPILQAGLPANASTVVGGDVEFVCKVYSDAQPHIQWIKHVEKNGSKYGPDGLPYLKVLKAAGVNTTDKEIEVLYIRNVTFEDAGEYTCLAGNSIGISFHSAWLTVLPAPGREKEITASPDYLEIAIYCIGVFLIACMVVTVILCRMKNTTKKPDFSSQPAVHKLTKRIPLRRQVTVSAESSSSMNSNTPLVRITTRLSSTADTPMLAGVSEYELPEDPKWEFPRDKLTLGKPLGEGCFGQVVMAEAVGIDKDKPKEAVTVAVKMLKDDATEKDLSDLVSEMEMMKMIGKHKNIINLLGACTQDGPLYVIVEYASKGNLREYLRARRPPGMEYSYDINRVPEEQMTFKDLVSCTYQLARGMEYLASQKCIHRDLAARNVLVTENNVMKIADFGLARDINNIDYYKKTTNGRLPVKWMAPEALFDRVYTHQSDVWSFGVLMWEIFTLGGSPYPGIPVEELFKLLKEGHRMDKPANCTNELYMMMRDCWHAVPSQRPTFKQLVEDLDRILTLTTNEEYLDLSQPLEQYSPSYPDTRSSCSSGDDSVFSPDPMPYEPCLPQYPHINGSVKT

[4] = target: FGFR3 (Homo sapiens (Human), UniProt P22607); assay: FGFR Enzymatic Assay (FRET, peptide phosphorylation), FGFR3; format: biochemical; settings: pre-incubated for 4 hours; ATP 140 μM
Chain of FGFR3 (P22607 23-806): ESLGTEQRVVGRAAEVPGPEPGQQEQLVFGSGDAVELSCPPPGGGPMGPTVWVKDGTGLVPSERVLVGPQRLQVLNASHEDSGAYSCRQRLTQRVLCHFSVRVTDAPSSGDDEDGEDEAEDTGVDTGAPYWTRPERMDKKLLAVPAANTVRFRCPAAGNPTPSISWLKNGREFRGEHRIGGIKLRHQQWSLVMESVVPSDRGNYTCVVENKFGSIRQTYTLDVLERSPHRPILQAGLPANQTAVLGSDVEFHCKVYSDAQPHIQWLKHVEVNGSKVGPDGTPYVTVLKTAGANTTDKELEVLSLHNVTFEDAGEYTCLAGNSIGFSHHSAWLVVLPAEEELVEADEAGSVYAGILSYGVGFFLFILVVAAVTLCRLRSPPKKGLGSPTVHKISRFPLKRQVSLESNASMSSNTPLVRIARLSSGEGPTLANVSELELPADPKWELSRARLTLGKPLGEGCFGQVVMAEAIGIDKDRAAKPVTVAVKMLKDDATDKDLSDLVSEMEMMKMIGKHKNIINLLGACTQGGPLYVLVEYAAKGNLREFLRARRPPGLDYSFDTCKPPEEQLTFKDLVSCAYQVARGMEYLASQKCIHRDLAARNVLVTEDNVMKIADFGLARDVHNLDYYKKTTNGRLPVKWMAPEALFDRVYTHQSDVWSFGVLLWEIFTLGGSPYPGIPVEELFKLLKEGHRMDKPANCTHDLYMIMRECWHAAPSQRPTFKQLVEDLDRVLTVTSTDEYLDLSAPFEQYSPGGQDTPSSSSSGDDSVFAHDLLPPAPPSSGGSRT

[5] = read-out: FGFR4 IC50, pre-incubated for 4 hours, ATP 600 uM

Chain of FGFR1 (P11362 22-822): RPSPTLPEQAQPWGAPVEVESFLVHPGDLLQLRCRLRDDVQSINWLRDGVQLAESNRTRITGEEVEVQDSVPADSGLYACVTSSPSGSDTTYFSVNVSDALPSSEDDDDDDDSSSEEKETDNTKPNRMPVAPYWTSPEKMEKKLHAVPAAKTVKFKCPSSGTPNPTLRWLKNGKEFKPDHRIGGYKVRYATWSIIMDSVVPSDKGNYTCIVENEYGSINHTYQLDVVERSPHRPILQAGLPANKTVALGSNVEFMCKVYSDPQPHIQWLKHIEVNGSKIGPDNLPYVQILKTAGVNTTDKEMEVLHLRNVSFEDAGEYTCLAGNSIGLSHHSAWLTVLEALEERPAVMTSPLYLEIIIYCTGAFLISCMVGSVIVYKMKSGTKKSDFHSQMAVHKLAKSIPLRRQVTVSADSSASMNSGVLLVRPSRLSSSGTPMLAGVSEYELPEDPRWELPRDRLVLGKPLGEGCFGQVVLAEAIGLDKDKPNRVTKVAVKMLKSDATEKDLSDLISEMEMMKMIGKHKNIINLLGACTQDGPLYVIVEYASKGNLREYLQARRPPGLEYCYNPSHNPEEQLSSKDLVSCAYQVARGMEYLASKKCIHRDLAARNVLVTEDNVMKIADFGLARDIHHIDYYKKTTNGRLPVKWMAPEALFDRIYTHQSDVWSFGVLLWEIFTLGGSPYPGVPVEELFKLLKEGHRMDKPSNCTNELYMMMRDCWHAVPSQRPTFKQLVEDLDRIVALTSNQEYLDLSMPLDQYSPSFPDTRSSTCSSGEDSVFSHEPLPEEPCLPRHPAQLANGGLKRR

## C=CC(=O)NCc1cc2c(cn1)CN(c1c(F)c(OC)cc(OC)c1F)C(=O)N2Cc1cccc(F)c1 [Example 16, N-((3-(2,6-difluoro-3,5-dimethoxyphenyl)-1-(3-fluorobenzyl)-2-oxo-1,2,3,4-tetrahydropyrido[4,3-d]pyrimidin-7-yl)methyl)acrylamide]
[1]
  IC50: 0.03 to 0.2 µM
[2]
  IC50: 0.01 to 0.03 µM

## C=CC(=O)NCc1cc2c(cn1)CN(c1c(F)c(OC)cc(OC)c1F)C(=O)N2C [Example 22, N-((3-(2,6-difluoro-3,5-dimethoxyphenyl)-1-methyl-2-oxo-1,2,3,4-tetrahydropyrido[4,3-d]pyrimidin-7-yl)methyl)acrylamide]
[3]
  IC50: > 0.2 µM
[1]
  IC50: > 0.2 µM
[4]
  IC50: > 0.2 µM
[2]
  IC50: 0.01 to 0.03 µM

## C=CC(=O)NCc1cc2c(cn1)CN(c1c(F)c(OC)cc(OC)c1F)C(=O)C21CCCC1 [Example 5, N-((2′-(2,6-difluoro-3,5-dimethoxyphenyl)-3′-oxo-2′,3′-dihydro-1′H-spiro[cyclopentane-1,4′-[2,7]naphthyridine]-6′-yl)methyl)acrylamide]
[3]
  IC50: > 0.2 µM
[1]
  IC50: > 0.2 µM
[4]
  IC50: > 0.2 µM
[2]; [5]
  IC50: < 0.01 µM

## C=CC(=O)NCc1cc2c(cn1)CN(c1c(F)c(OC)cc(OC)c1F)C(=O)N2CC1CCN(C(=O)OC)CC1 [Example 33, methyl 4-((7-(acrylamidomethyl)-3-(2,6-difluoro-3,5-dimethoxyphenyl)-2-oxo-3,4-dihydropyrido[4,3-d]pyrimidin-1(2H)-yl)methyl)piperidine-1-carboxylate]
[3]
  IC50: > 0.2 µM
[1]
  IC50: > 0.2 µM
[2]; [5]
  IC50: < 0.01 µM

## C=CC(=O)NCc1cc2c(cn1)CN(c1c(F)c(OC)cc(OC)c1F)C(=O)N2CC(C)C [Example 29, N-((3-(2,6-difluoro-3,5-dimethoxyphenyl)-1-isobutyl-2-oxo-1,2,3,4-tetrahydropyrido[4,3-d]pyrimidin-7-yl)methyl)acrylamide]
[1]
  IC50: 0.03 to 0.2 µM
[4]
  IC50: > 0.2 µM
[2]; [5]
  IC50: < 0.01 µM

## C=CC(=O)NCc1cc2c(cn1)CN(c1c(F)c(OC)cc(OC)c1F)C(=O)N2CC1CC1 [Example 13, N-((1-(cyclopropylmethyl)-3-(2,6-difluoro-3,5-dimethoxyphenyl)-2-oxo-1,2,3,4-tetrahydropyrido[4,3-d]pyrimidin-7-yl)methyl)acrylamide]
[1]
  IC50: 0.03 to 0.2 µM
[2]; [5]
  IC50: < 0.01 µM

## C=CC(=O)NCc1cc2c(cn1)CN(c1c(F)c(OC)cc(OC)c1F)C(=O)N2Cc1cnn(C)c1 [Example 18, N-((3-(2,6-difluoro-3,5-dimethoxyphenyl)-1-((1-methyl-1H-pyrazol-4-yl)methyl)-2-oxo-1,2,3,4-tetrahydropyrido[4,3-d]pyrimidin-7-yl)methyl)acrylamide]
[1]
  IC50: 0.03 to 0.2 µM
[2]; [5]
  IC50: < 0.01 µM

## C=CC(=O)NCc1cc2c(cn1)CN(c1c(F)c(OC)cc(OC)c1F)C(=O)C21CC1 [Example 1, N-{[2′-(2,6-difluoro-3,5-dimethoxyphenyl)-3′-oxo-2′,3′-dihydro-1′H-spiro[cyclopropane-1,4′-[2,7]naphthyridin]-6′-yl]methyl}acrylamide]
[2]; read-out: FGFR4 IC50, pre-incubated for 5 to 10 minutes, ATP 600 uM
  IC50: < 0.01 µM
[2]; [5]
  IC50: < 0.01 µM

## C=CC(=O)NCc1cc2c(cn1)CN(c1c(F)c(OC)cc(OC)c1F)C(=O)N2C1CCOCC1 [Example 23, N-((3-(2,6-difluoro-3,5-dimethoxyphenyl)-2-oxo-1-(tetrahydro-2H-pyran-4-yl)-1,2,3,4-tetrahydropyrido[4,3-d]pyrimidin-7-yl)methyl)acrylamide]
[2]
  IC50: 0.01 to 0.03 µM

## C=CC(=O)NCc1cc2c(cn1)CN(c1c(F)c(OC)cc(OC)c1F)C(=O)N2C1CCCC1 [Example 28, N-((1-cyclopentyl-3-(2,6-difluoro-3,5-dimethoxyphenyl)-2-oxo-1,2,3,4-tetrahydropyrido[4,3-d]pyrimidin-7-yl)methyl)acrylamide]
[1]
  IC50: 0.03 to 0.2 µM
[2]; [5]
  IC50: < 0.01 µM

## C=CC(=O)NCc1cc2c(cn1)CN(c1c(F)c(OC)cc(OC)c1F)C(=O)N2CC1CCC1 [Example 30, N-((1-(cyclobutylmethyl)-3-(2,6-difluoro-3,5-dimethoxyphenyl)-2-oxo-1,2,3,4-tetrahydropyrido[4,3-d]pyrimidin-7-yl)methyl)acrylamide]
[1]
  IC50: 0.03 to 0.2 µM
[4]
  IC50: > 0.2 µM
[2]; [5]
  IC50: < 0.01 µM
